Laboratory results: ChEMBL document CHEMBL5726902, “Heterocyclic kinase inhibitors” (2019)
pIC50: −log10 of the molar value.

Biological target: Macrophage colony-stimulating factor 1 receptor (Homo sapiens, UniProt P07333)
Experiment: In Vitro CSF-1R Kinase Activity: The CSF-1R construct corresponds to recombinant human catalytic domain (aa 538-910), which was purchased from Invitrogen (cat #PV4092). CSF-1R was mixed with peptide substrate (biotin-TYR1, Sequence: Biotin-(Ahx)-GAEEEIYAAFFA-COOH, 4 μM final) at varying inhibitor concentrations in reaction buffer: 50 mM MOPSO pH 6.5, 10 mM MgCl2, 2 mM MnCl2, 2.5 mM DTI, 0.01% BSA, 0.1 mM Na3VO4 and 0.1 mM ATP. After about 60 min incubation at rt, the reaction was quenched by addition of EDTA (final concentration: 100 mM) and developed by addition of detection reagents (final approximate concentrations: 30 mM HEPES pH 7.0, 0.06% BSA, 0.006% Tween-20, 0.24 M KF, 80 ng/mL PT66K (europium labeled anti-phosphotyrosine antibody cat #61T66KLB Cisbio, Bedford, Mass.) and 0.6 μg/mL SAXL (Phycolink streptavidin-allophycocyanin acceptor, cat #PJ25S, Prozyme, San Leandro, Calif.). The developed reaction was incubated in the dark for about 60 min at rt, then read via a time-resolved fluorescence detector (Rubystar, BMG) using a 337 nm laser for excitation and monitoring emission wavelength at 665 nm. Within the linear range of the assay, the observed signal at 665 nm was directly related to phosphorylated product and can be used to calculate the IC50 values.

Sequence of Macrophage colony-stimulating factor 1 receptor (P07333 whole entry, the tested form may be a part): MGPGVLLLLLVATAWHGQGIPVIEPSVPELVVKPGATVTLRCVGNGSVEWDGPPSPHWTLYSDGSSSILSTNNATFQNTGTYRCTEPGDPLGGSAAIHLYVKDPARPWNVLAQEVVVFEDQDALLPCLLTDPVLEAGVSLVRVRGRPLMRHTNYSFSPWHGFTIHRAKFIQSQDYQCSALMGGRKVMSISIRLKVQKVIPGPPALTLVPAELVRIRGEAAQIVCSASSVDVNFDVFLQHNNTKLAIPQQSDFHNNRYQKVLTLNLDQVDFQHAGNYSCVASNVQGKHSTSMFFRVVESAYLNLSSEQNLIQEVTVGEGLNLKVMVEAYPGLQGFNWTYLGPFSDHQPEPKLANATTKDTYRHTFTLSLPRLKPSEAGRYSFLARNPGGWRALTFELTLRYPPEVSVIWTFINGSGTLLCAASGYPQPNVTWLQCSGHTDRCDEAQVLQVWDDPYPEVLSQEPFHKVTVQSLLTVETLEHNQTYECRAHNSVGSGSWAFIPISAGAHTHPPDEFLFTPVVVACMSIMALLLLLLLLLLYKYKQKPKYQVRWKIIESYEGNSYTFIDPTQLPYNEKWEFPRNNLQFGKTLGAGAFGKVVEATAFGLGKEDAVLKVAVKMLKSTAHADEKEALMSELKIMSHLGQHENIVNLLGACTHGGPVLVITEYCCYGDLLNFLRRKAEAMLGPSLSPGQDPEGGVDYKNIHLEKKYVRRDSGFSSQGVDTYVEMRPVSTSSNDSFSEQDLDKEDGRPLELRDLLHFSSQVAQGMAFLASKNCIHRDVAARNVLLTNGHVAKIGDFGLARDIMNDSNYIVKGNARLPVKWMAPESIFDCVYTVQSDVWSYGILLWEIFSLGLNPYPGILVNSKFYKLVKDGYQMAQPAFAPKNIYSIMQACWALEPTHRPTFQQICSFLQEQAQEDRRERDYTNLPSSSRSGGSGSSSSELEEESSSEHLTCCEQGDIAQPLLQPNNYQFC

Row | pIC50 | Structure (SMILES)
1 | > 7.00 | O[C@H]1CC[C@@H](n2cc(Nc3nc(C4CCCCC4)cn4ncnc34)cn2)CC1
2 | > 7.00 | CC1(C)CC(n2cc(Nc3nc(C4CCCCC4)cn4ncnc34)cn2)CC(C)(C)O1
3 | > 7.00 | O[C@H]1CC[C@H](n2cc(Nc3nc(C4CCCCC4)cn4ncnc34)cn2)CC1
